Measured values from US8829014B2, “Thiazole and thiophene analogues, and their use in treating autoimmune diseases and cancers” (Board of Supervisors of Louisiana State University and …, priority 2006, dated 2014).
Marks after values point to notes of the source that are not given here.

Key:
Assay type in all cases: cell-based
[1] = tested on: Human umbilical vein endothelial cells (HUVEC); experiment: LDH release cytotoxicity in HUVEC; details: HUVEC, 10 μM, 48 h, relative to vehicle
Protocol: (§1) Additional compounds have also been tested for their ability to inhibit both TNF-α-induced NF-κB—expression and PMA-induced AP-1 expression. In both tests, the compound was added for 1 h, then the appropriate inducer was added, and luciferase activity was monitored 24 h later. Values were then normalized to the vehicle control, DMSO. Following the initial luciferase screens, studies were conducted to assess the cytotoxicity of the compounds in normal cells such as VSMC, HUVEC, or HPT cells. Human umbilical vein endothelial cells (HUVEC) represent the normal endothelium, vascular smooth muscle cells (VSMC) were represented by cells from the adult rat aorta, and human proximal tubule (HPT) cells represent the normal proximal tubule in vivo. These cells were grown to near confluency in multi-well plates, and were then treated for 48 h with either vehicle (0.1% DMSO) or 10 μM of each drug candidate. Following treatment, the media from the VSMC and HUVEC incubations were removed, and the amount of lactate dehydrogenase (LDH) released into the medium was determined with a commercial kit. LDH is normally confined to the cytosol, and its release represents “leakiness” of the plasma membrane. LDH activity was expressed as % increase over vehicle-treated cells. In another assay of viability, the treated VSMC and HUVEC were removed by trypsinization and treated with trypan blue, a dye that is taken up only by dead cells. The number of both live and dead cells was counted using an automated cell viability analyzer. The % decrease in numbers of viable cells was determined. Toxicity in the treated HPT cells was determined by the ethidium homodimer (EthHD) uptake assay. EthHD is a fluorescent dye that is excluded from live cells, but is taken up by cells that have lost permeability barriers. Inside the cell, EthHD produces a strong fluorescent signal, which is proportional to the number of dead cells. Results were expressed as a % increase in cell death over vehicle-treated cells. The lead compounds were also tested in two pairs of cell lines from either the skin or prostate, one tumorigenic and one non-tumorigenic, to test for any differences in toxicity or heightened sensitivity in the tumorigenic lines. The cells were treated for 48 h with vehicle (0.1% DMSO) or 10 μM of each drug candidate. Following treatment, the viability of the cells was determined by the MTT assay. In this assay, the MTT dye is converted only in viable cells by intracellular enzymes to a colorimetric product that is quantitated by a microplate reader.
(§2) For the results in Table 13, cells were grown to near confluency in multi-well plates, then treated for 48 h with either vehicle (0.1% DMSO) or 10 μM of each drug candidate. Following treatment, the media from the VSMC and HUVEC incubations were removed, and the amount of lactate dehydrogenase (LDH) released into the medium was determined with a commercial kit and expressed as a % increase over vehicle-treated cells. HPT toxicity was determined by the ethidium homodimer (EthHD) uptake assay. Inside the cell, EthHD produces a strong fluorescent signal, which is proportional to the amount of cell death, expressed as a % increase in cell death over vehicle-treated cells. The lead compounds were also tested in two pairs of cell lines from the skin or prostate, one tumorigenic and one non-tumorigenic, to test for differing toxicity or heightened sensitivity in the tumorigenic lines. The cells were treated for 48 h with vehicle (0.1% DMSO) or 10 μM of each drug candidate, and the viability of the cells was determined by the MTT assay, expressed as a % decrease in viability compared to vehicle-treated cells. The in vivo inflammation model measured the % inhibition of rat paw edema induced by carageenan injection.

[2] = tested on: vascular smooth muscle cells (VSMC); experiment: LDH release cytotoxicity in VSMC; details: VSMC, 10 μM, 48 h, relative to vehicle
Protocol: as §1, §2

[3] = tested on: AP-1; experiment: PMA-induced AP-1 luciferase expression in HEK cells; details: PMA-induced; compound added 1 h before inducer, luciferase 24 h later; normalized to DMSO vehicle
[4] = tested on: Human umbilical vein endothelial cells (HUVEC); experiment: Trypan blue viability count in HUVEC; details: HUVEC, 10 μM, 48 h, relative to vehicle
Protocol: as §1

[5] = tested on: NF-κB; experiment: TNF-α-induced NF-κB-dependent luciferase expression in HEK cells; design: NF-κB % inhibition: concentration or dose not given beside the values; details: TNF-α-induced; compound added 1 h before inducer, luciferase 24 h later; normalized to DMSO vehicle
[6] = tested on: cell lines from the skin, one tumorigenic and one non-tumorigenic; experiment: MTT viability in skin cell line pair, tumorigenic and non-tumorigenic
Protocol: as §1, §2

[7] = tested on: vascular smooth muscle cells (VSMC); experiment: Trypan blue viability count in VSMC; details: VSMC, 10 μM, 48 h, relative to vehicle
Protocol: as §1

[8] = tested on: human proximal tubule (HPT) cells; experiment: Ethidium homodimer (EthHD) uptake toxicity assay in HPT cells; details: 10 μM, 48 h, relative to vehicle
Protocol: as §1, §2

Structure (SMILES)	LDH release % Increase HUVEC [1]	LDH release % Increase VSMC [2]	AP-1 % inhibition [3]	Viable Cells % Decrease HUVEC [4]	NF-κB % inhibition [5]	Viability (MTT) % Decrease HaCaT [6]	Viability (MTT) % Decrease SRB12-p9 [6]	Viable Cells % Decrease VSMC [7]	Cell Death (EthHD) % Increase HPT [8]
CNc1nc(C)c(-c2nc3ccccc3c(=O)n2-c2ccccc2C)s1 [PMCR19]	14%	4%	67** %	20%	18%	6%	21%	29# %	63# %
Cc1ccccc1-n1c(-c2sc(Nc3ccccc3)nc2C)nc2ccccc2c1=O [PMCR20]	17%	9%	73** %	28# %	21%	6%	14%	34# %	109# %
CCOC(=O)Nc1nc(-c2ccccc2)c(-c2nc3ccccc3c(=O)n2-c2ccccc2C)s1 [PMCR25]	59# %	78# %	52** %	40# %	23%	−5%	28# %	56# %	34# %
Cc1cccc(-n2c(-c3sc(NC(=O)c4ccccc4)nc3-c3ccccc3)nc3ccccc3c2=O)c1 [PMCR45]	123# %	116# %	63** %	41# %	42%	19%	20%	67# %	49# %
CNc1nc(-c2ccccc2)c(-c2nc3ccccc3c(=O)n2-c2ccccc2OC)s1 [PMCR75]	15%	31# %	90** %	41# %	61** %	46# %	61# %	70# %	4%
Cc1nc(Nc2ccc(Cl)cc2)sc1-c1nc2ccccc2c(=O)n1-c1ccccc1Cl [PMCR120]	6%	11%	27%	16%	60** %	−4%	85# %	13%	17%
COC(=O)Nc1nc(-c2ccccc2)c(-c2nc3ccccc3c(=O)n2-c2ccccc2Cl)s1 [PMCR122]	37# %	20%	66** %	32# %	55** %	6%	11%	45# %	210# %
Cc1ccccc1-n1c(-c2cc(-c3ccncc3)c(N3CCOCC3)s2)nc2ccccc2c1=O [PMCR188]	160# %	148# %	0%	60# %	53%	0%	0%	92# %	250# %
COc1ccccc1-n1c(-c2cc(-c3ccc(S(C)(=O)=O)cc3)c(N3CCOCC3)s2)nc2ccccc2c1=O [PMCR204]	214# %	164# %	33%	65# %	55** %	−8%	12%	70# %	207# %
COc1ccccc1-n1c(-c2cc(-c3ccncc3)c(N3CCOCC3)s2)nc2ccccc2c1=O [PMCR206]	−1%	0%	33%	12%	31%	11%	30# %	0%	147# %
COc1ccc(-n2c(-c3cc(-c4ccc(S(C)(=O)=O)cc4)c(N4CCOCC4)s3)nc3ccccc3c2=O)cc1 [PMCR216]	0%	−10%	10%	−1%	60** %	−21%	16%	6%	152# %
O=c1c2ccccc2nc(-c2cc(-c3ccncc3)c(N3CCOCC3)s2)n1-c1ccccc1Cl [PMCR224]	28# %	18%	45%	43# %	80** %	−4%	13%	63# %	266# %
O=c1c2ccccc2nc(-c2cc(-c3ccncc3)c(N3CCOCC3)s2)n1-c1ccc(Cl)cc1 [PMCR236]	39# %	91# %	32%	60# %	68** %	6%	19%	94# %	172# %
CC(=O)c1ccc(-n2c(-c3cc(-c4ccncc4)c(N4CCOCC4)s3)nc3ccccc3c2=O)cc1 [PMCR242]	61# %	68# %	84** %	60# %	66** %	−28%	14%	90# %	50# %
